Assay results taken from the PolyMetriX glass transition set.

glass transition temperature [°C] | SMILES
35.00 | *CC(O)COC(=O)CCCCCCC(=O)OCC(O)COc1ccc(C(C)(C)c2ccc(O*)cc2)cc1 (repeat unit)
214.00 | *Oc1ccc(C(C)(C)c2ccc(Oc3ccc(C(=O)Nc4cccc(NC(=O)c5ccc(*)cc5)c4)cc3)cc2)cc1 (repeat unit)
56.00 | *Oc1ccc(CC(NC(=O)CCc2ccc(OC(=O)CCCC(*)=O)cc2)C(=O)OCCCC)cc1 (repeat unit)
75.00 | *Cc1ccc(CNC(=O)CCCCCCCCCCCCCCCCC(=O)N*)cc1 (repeat unit)
190.00 | *c1ccc(Oc2ccc(C(=O)c3cccc(C(=O)c4ccc(Oc5ccc(-c6cc(*)n(-c7ccccc7)n6)cc5)cc4)c3)cc2)cc1 (repeat unit)
23.00 | *CC(*)(C)C(=O)OCCCCC(F)(F)C(F)(F)C(F)(F)C(F)(F)F (repeat unit)
315.00 | *c1ccc(C(c2ccccc2)c2ccc(N3C(=O)c4ccc(-c5ccc6c(c5)C(=O)N(*)C6=O)cc4C3=O)cc2)cc1 (repeat unit)
289.50 | *c1ccc(C(=O)Nc2ccc(Oc3ccc(Oc4ccc(NC(=O)c5ccc(Oc6ccc(-c7nn(*)c(=O)c8ccccc78)c7ccccc67)cc5)cc4)cc3)cc2)cc1 (repeat unit)
267.50 | *Oc1ccc(C2(c3ccc(OC(*)=O)cc3)CC3CC2C2C4CCC(C4)C32)cc1 (repeat unit)
243.00 | *c1ccc(Oc2ccc(C3(c4ccc(Oc5ccc(N6C(=O)c7ccc(Oc8ccc(C9(c%10ccc(Oc%11ccc%12c(c%11)C(=O)N(*)C%12=O)cc%10)CCC(c%10ccccc%10)CC9)cc8)cc7C6=O)cc5)cc4)CCC(C(C)(C)C)CC3)cc2)cc1 (repeat unit)
135.00 | *CCCCCCNC(=O)c1cc(NC(=O)C(C(C)CC)N2C(=O)c3ccccc3C2=O)cc(C(=O)N*)c1 (repeat unit)
-86.00 | *O[Si](C)(C=C)O[Si](C)(C=C)O[Si](C)(C)c1ccc([Si](*)(C)C)cc1 (repeat unit)
342.00 | *Oc1ccc(C2(c3ccc(OC(=O)c4ccc(C(*)=O)cc4)cc3)c3ccccc3Cc3ccccc32)cc1 (repeat unit)
208.00 | */C(=C/c1cc(OC)c(/C=C(\c2ccc(F)cc2)c2ccc3cc(*)ccc3c2)cc1OC)c1ccc(F)cc1 (repeat unit)
226.00 | *c1ccc(Oc2ccc(N3C(=O)c4cccc(Oc5cccc(Oc6cccc7c6C(=O)N(*)C7=O)c5)c4C3=O)cc2)cc1 (repeat unit)
198.00 | *c1ccc(CCc2ccccc2N2C(=O)C(=O)N(c3ccc(Cc4ccc(N5C(=O)C(=O)N(*)C5=O)cc4)cc3)C2=O)cc1 (repeat unit)
139.00 | *CCC(CC)CC(C)CNC(=O)c1ccc(C(=O)N*)cc1 (repeat unit)
166.00 | *c1ccc(C(=O)NCCCCCCCCCCNC(=O)c2ccc(-c3nc4ccccc4nc3*)cc2)cc1 (repeat unit)
231.00 | *Oc1ccc(C2(c3ccc(Oc4ccc(C(=O)c5ccc(Oc6ccc(C(=O)c7ccc(*)cc7)cc6)cc5)cc4)cc3)c3ccccc3-c3ccccc32)cc1 (repeat unit)
377.00 | *c1ccc2c(c1)C(=O)N(c1c(C)cc(C)c(N3C(=O)c4ccc(C(*)(C(F)(F)F)C(F)(F)F)cc4C3=O)c1C)C2=O (repeat unit)
35.00 | *CC(*)(C)C(=O)OCC1COCCOCCOCCO1 (repeat unit)

SMILES | glass transition temperature [°C]
*CC(COCCCCCC)O* (repeat unit) | -85.50
*CCCC(Cl)C(*)Cl (repeat unit) | 42.00
*CC1(*)CCCCC1 (repeat unit) | 100.00
*CC(C)(C)S* (repeat unit) | -14.00
*CC(*)(C)C(=O)OCCBr (repeat unit) | 52.00
